Values quoted from earlier work in patent US20240298642A1, “Herbicidal Compositions Comprising Fluazifop And Triclopyr” (Bayer CropScience LP, priority 2023, published 2024).

Details: neat solvent

| SMILES | flash point |
| --- | --- |
| CCCCCCO [Composition 1-hexanol, 1-hexanol] | 65 °C |
| CCCCCCCCO [Composition 1-octanol, 1-octanol] | 81 °C |
